Experiments:
[1] = test system: JFH-1 HCV virus (genotype 2a); assay: Genotype 2a infectious virus assay (JFH-1, HCV core ELISA in HPC cells); assay type: cell-based; conditions: Hepatitis C virus, 120 h, 5 days
Protocol: The genotype 2a infectious virus assay measures the ability of a test compound to inhibit HCV replication in cell culture after 5 days of treatment at the time of HCV genotype 2a virus infection of a permissive human hepatoma cell line (HPC cells). The inhibition of HCV replication was measured by quantification of HCV core protein expression by an enzyme-linked immunosorbent assay (ELISA). Briefly, HPC cells were grown in DMEM containing glucose, L-glutamine and sodium pyruvate, 10% FBS, 100 IU/mL penicillin, 100 μg/mL streptomycin, 2 mM GlutaMAX, and non-essential amino acids. GlutaMAX was obtained from Invitrogen, Corp.; all other media reagents were obtained from Mediatech, Inc. For dose-response testing, ninety-six-well plates were seeded with HPC cells at a density of 2.5×10^3 cells/well in a volume of 50 μL, and incubated at 37° C./5% CO2. Three hours after plating, 50 μL of ten 5-fold serial dilutions of compound and 100 μL of genotype 2a virus were added, and cell cultures were incubated at 37° C./5% CO2. […]
The HCV in vitro infection core ELISA assay measures the ability of a test compound to inhibit replication of an infectious HCV (strain JFH-1; genotype 2a) in cell culture. […] The readout of the assay is quantification of HCV core protein by ELISA 5 days post infection with JFH-1 virus and treatment with a test compound. […]

[2] = test system: HCV genotype 1b Con1 strain subgenomic luciferase replicon (Zluc) in Huh-7 cells; assay: Luciferase replicon assay, genotype 1b (Zluc); assay type: cell-based; conditions: Hepatitis C virus, genotype 1b Con1 luciferase replicon (Zluc), 72 hours, read-out: EC50 Against Relpicon 1b
Protocol: The HCV luciferase replicon assay measures the ability of a test compound to inhibit HCV replication in cell culture after 3 days of treatment in a human hepatoma cell line (Huh-7) bearing a HCV replicon containing a luciferase-neomycin phosphotransferase fusion gene. The inhibition of HCV replication was measured by quantification of luciferase protein expression. Briefly, Huh-7 cells containing either the HCV genotype 1a H77 strain or genotype 1b Con1 strain subgenomic luciferase replicon (H1a-luc or Zluc, respectively) were grown in DMEM containing glucose, L-glutamine and sodium pyruvate, 10% fetal bovine serum (FBS), 100 IU/mL penicillin, 100 μg/mL streptomycin, 2 mM GlutaMAX, non-essential amino acids and 0.25 (H1a-luc) or 0.5 (Zluc) mg/mL G418. GlutaMAX was obtained from Invitrogen. Corp.; all other media reagents were obtained from Mediatech, Inc. For dose-response testing, the cells were seeded in 96-well plates at 1×10^4 (H1a-luc) or 7.5×10^3 (Zluc) cells/well in a volume of 50 μL, and incubated at 37° C./5% CO2. […] The assay plates were shaken for 3 minutes at room temperature and luciferase activity for each well was measured with a 1 sec read time on the Victor^3V multilabel counter using a 700 nm cut-off filter (Perkin Elmer). EC50 values were calculated from dose response curves from the resulting best-fit equations determined by Microsoft Excel and XLfit 4.1 software.

[3] = molecular target: T1, CYP2D6 (Homo sapiens, UniProt P10635); assay: In vitro CYP450 inhibition screen, luminogenic assay, CYP2D6; assay type: in vitro ADME; conditions: CYP2D6 enzyme (BD Bioscience), probe substrate Luciferin-ME EGE, average of two independent experiments, read-out: IC50 (μM) or % Inhibition at 20 μM, CYP450 2D6
T1 construct: purchased BD Bioscience
T1 sequence (P10635 whole entry): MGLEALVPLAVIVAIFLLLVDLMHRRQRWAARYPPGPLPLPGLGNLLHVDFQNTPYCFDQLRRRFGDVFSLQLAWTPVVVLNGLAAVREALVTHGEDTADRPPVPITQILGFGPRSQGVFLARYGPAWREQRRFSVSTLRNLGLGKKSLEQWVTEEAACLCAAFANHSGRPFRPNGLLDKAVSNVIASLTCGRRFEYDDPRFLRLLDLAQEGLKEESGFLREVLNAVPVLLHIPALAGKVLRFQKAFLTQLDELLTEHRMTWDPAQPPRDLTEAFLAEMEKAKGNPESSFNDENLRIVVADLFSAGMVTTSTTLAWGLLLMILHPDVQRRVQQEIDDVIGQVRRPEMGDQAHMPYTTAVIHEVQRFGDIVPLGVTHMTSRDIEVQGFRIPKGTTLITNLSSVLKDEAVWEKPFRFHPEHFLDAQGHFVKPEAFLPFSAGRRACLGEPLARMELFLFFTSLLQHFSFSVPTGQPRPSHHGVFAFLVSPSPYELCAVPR
Protocol: CYP2C8, 2C9, 2C19 and 2D6 (BD Bioscience) inhibition luminogenic assay was performed as per the protocol provided by Promega (P450-Glo™ Assay Technical Bulletin #TB325, P450-Glo™ Screening Systems Technical Bulletin #TB340). Test articles were prepared as 10 mM stock solutions in DMSO.
Data represent the average of two independent experiments. A represents inhibition of 5 to 10%. B represents inhibition of >10% to 20%. C represents inhibition of >20% to 30%. D represents inhibition of >30% to 40%. I represents an IC50 of 5 to 9 μM.

| SMILES | EC50 [1] | EC50 [2] | inhibition at 20 µM [3] |
| --- | --- | --- | --- |
| COc1ccc2c(O[C@H]3CC[C@H]4C(=O)N(C)CCCC/C=C\[C@@H]5C[C@@]5(C(=O)NS(=O)(=O)C5(C)CC5)NC(=O)[C@@H]4C3)cc(-c3nc(C(F)(F)F)cs3)nc2c1C [Compound 51] | < 1000 nM | < 1000 nM | 20 to 30% |
| C#Cc1csc(-c2cc(O[C@H]3CC[C@H]4C(=O)N(C)CCCC/C=C\[C@@H]5C[C@@]5(C(=O)NS(=O)(=O)C5(C)CC5)NC(=O)[C@@H]4C3)c3ccc(OC)c(C)c3n2)n1 [Compound 52, (1aR,3aR,5S,7aR,15aS,Z)-5-(2-(4-ethynylthiazol-2-yl)-7-methoxy-8-methylquinolin-4-yloxy)-9-methyl-N-(1-methylcyclopropylsulfonyl)-3,8-dioxo-1a,2,3,3a,4,5,6,7,7a,8,9,10,11,12,13,15a-hexadecahydro-1H-benzo[c]cyclopropa[g][1,6]diazacyclotetradecine-1a-carboxamide] | < 1000 nM | < 1000 nM | 5 to 10% |
